Test results taken from patent US20160044922A1, “Control of Ectoparasites” (priority 2014, published 2016).

Legend:
[1] = tested on: tobacco bud worm; details: cited from earlier work
[2] = tested on: mosquito larvae; details: cited from earlier work
[3] = tested on: fish, mammals; details: fish versus mammals; cited from earlier work
[4] = tested on: cotton aphids; details: cited from earlier work
[5] = tested on: Larval-stage lone star ticks (Amblyomma americanum); experiment: Dip survival assay, A. americanum larvae; type: in vivo; details: larvae submerged 30 minutes, counted after 24 hours at 25° with 95% humidity
Description: Activity Against A. Americanum Larvae in a Dip Survival Assay
Compound 1 from a dimethyl sulfoxide (DMSO) stock or 2% DMSO alone is dispensed into a round-bottom 96-well plate and mixed with aqueous buffer containing 1% ethanol, 0.2% Triton X100. […] Larval-stage lone star ticks (Amblyomma americanum) are dispensed into the wells containing the Compound and submerged for 30 minutes. The ticks are subsequently dispensed into a tissue biopsy bag, which is allowed to dry for 1 hour. After drying, the bags are incubated at 25° with 95% humidity for 24 hours and the number of live or dead larvae are enumerated. The observations made illustrated in the following table.

[6] = tested on: cabbage looper; details: cited from earlier work
[7] = tested on: southern corn rootworm; details: cited from earlier work
[8] = rat versus trout liver microsomes; cited from earlier work
[9] = tested on: beneficial mite species; details: under normal use; cited from earlier work
[10] = tested on: tobacco budworm; details: cited from earlier work
[11] = tested on: predatory mites and many beneficial insects; details: under field conditions; cited from earlier work
[12] = tested on: fleas; experiment: Activity on fleas; details: in vivo
[13] = tested on: ticks; experiment: Activity on ticks; details: in vivo

Compound	metabolism by the tobacco bud worm [1]	LC50 [2]	toxicity [3]	LC50 [4]	Number of live/dead A. americanum larvae 24 hours after treatment ([5]; 0.01% compound)	Number of live/dead A. americanum larvae 24 hours after treatment ([5]; 0.05% compound)	LC50 [6]	activity [7]	degradation by liver microsomes [8]	toxicity to beneficial mite species [9]	activity [10]	impact on predatory mites and many beneficial insects [11]	activity on fleas [12]	activity on ticks [13]
CC(C)(C)c1ccc(CCOc2ncnc3ccccc23)cc1 [Formula I, 4-tert-butylphenethyl quinazolin-4-yl ether]	extensively metabolized	0725 ppm	higher toxicity of the compound to fish than to mammals	2.6 ppm	0/52	0/48	188 ppm	greater than 400 ppm	degraded more extensively by rat liver microsomes than by trout liver microsomes	relatively low toxicity	greater than 400 ppm	minimal impact	active	active
CCc1nn(C)c(C(=O)NCc2ccc(C(C)(C)C)cc2)c1Cl [Formula II, 4-chloro-5-ethyl-2-methyl-N-[(4-tert-butylphenyl)methyl]pyrazole-3-carboxamide]										relatively low toxicity		minimal impact		
CC(C)(C)c1ccc(CSc2cnn(C(C)(C)C)c(=O)c2Cl)cc1 [pyridaben, 4-chloro-2-tert-butyl-5-[(4-tert-butylphenyl)methylsulfanyl]pyridazin-3-one]												minimal impact		
